Results as given in ChEMBL document CHEMBL1201862, “PubChem BioAssay data set” (2004).
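Briefly, cells in 96-well plates were exposed to five compound concentrations for 48 h, and endpoints were estimated by linear interpolation. GI50 is the concentration that inhibits growth by half.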 Activity calls are given as the source filed them. No stated cut-off is given here; in the data, active = GI50 up to about 1.1 µM and inactive = higher.

Columns and labels:
Experiment in all cases: DTP human tumour cell line panel, 48 h
NCI-H226 = test system: NCI-H226
HCT-15 = test system: HCT-15
NCI-H460 = test system: NCI-H460
LOX IMVI = test system: LOX IMVI
OVCAR-4 = test system: OVCAR-4
KM12 = test system: KM12
OVCAR-5 = test system: OVCAR-5
MDA-MB-231 = test system: MDA-MB-231
UACC-62 = test system: UACC-62
CAKI-1 = test system: CAKI-1
U-251 = test system: U-251
BT-549 = test system: BT-549
MDA-N = test system: MDA-N
MDA-MB-435 = test system: MDA-MB-435
MOLT-4 = test system: MOLT-4
M14 = test system: M14
HCC 2998 = test system: HCC 2998
MCF7 = test system: MCF7
ACHN = test system: ACHN
Malme-3M = test system: Malme-3M

Fc1ccc(C(OCCN2CCC3CCC(C2)N3Cc2cc3ccccc3[nH]2)c2ccc(F)cc2)cc1 (stereo not given)
GI50 (NCI-H226): 1830 nM (inactive) | GI50 (HCT-15): 1150 nM | GI50 (NCI-H460): 1780 nM (inactive) | GI50 (LOX IMVI): 1790 nM (inactive) | GI50 (OVCAR-4): 1950 nM (inactive) | GI50 (KM12): 1710 nM (inactive) | GI50 (OVCAR-5): 1740 nM (inactive) | GI50 (MDA-MB-231): 1700 nM (inactive) | GI50 (UACC-62): 2080 nM (inactive) | GI50 (CAKI-1): 2230 nM (inactive) | GI50 (U-251): 1870 nM (inactive) | GI50 (BT-549): 2320 nM (inactive) | GI50 (MDA-N): 1730 nM (inactive) | GI50 (MDA-MB-435): 1880 nM (inactive) | GI50 (MOLT-4): 1350 nM (inactive) | GI50 (M14): 1600 nM (inactive) | GI50 (HCC 2998): 1630 nM (inactive) | GI50 (MCF7): 1790 nM (inactive) | GI50 (ACHN): 1890 nM (inactive) | GI50 (Malme-3M): 1580 nM (inactive)
